For this test, the target named is T1, SGLT2 (Homo sapiens, UniProt P31639).
T1 construct: expressed in transfected cells
T1 sequence (P31639 1-672): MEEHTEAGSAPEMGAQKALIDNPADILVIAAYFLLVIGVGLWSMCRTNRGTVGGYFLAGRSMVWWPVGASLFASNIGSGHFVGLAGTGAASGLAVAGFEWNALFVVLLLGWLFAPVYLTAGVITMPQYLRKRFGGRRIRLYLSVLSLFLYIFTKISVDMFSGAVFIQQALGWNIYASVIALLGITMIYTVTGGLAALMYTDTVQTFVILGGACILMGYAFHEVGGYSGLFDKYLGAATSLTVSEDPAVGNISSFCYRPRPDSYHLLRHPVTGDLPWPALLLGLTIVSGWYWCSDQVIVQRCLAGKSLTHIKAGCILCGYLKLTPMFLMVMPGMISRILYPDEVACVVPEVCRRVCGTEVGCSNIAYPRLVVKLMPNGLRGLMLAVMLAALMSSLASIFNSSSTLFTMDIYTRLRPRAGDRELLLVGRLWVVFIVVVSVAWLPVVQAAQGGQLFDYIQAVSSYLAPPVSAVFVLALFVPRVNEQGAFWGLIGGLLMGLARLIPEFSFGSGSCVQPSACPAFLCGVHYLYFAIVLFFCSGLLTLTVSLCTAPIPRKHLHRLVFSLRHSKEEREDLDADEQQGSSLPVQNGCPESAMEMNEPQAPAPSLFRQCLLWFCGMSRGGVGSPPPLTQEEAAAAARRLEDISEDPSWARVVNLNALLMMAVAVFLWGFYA
In words: Applicant's preliminary study of SGLT2 inhibition, intracellular retention and activity recovery. Type of test: cell-based.

These results are taken from patent publication US20260124170A1, “PHARMACEUTICAL COMPOSITION COMPRISING METABOLITE OF ENAVOGLIFLOZIN, AND USE THEREOF” (DAEWOONG PHARMACEUTICAL CO., LTD., priority 2022, published 2026).

Take `OC[C@H]1O[C@@H](c2cc(Cc3ccc(C4CC4)cc3)c(Cl)c3c2CCO3)[C@H](O)[C@@H](O)[C@@H]1O` [Enavogliflozin, (2S,3R,4R,5S,6R)-2-(7-chloro-6 (4-cyclopropylbenzyl)-2,3-dihydrobenzofuran-4-yl)-6-(hydroxymethyl)tetrahydro-2H-pyran-3,4,5-triol]: the “Amount of drug remaining in the cells” value (after culturing for 24 hours, compared to dapagliflozin and ipragliflozin) is “significantly higher”. In addition, the “Inhibition mechanism of SGLT2 (Dixon plot and Replot)” value (preliminary study) is recorded as “reversible competitive inhibition mechanism”. In addition, under “pretreatment for up to two hours, preliminary study”, the “Change in inhibition after pretreatment” value is “no change in inhibition”.
